Source: patent US11452703B2, “Methods and compositions for reducing adipocyte numbers” (Peregrine Ophthalmic PTE LTD., priority 2020, dated 2022)

Tests used:
[1] = tested on: intraconal fat deposit adipocytes; assay: Short-term (7-day) adipocyte counts in intraconal fat after retrobulbar injection; assay type: in vivo; conditions: rat, single retrobulbar injection, 25 μg/eye (DCA 2000 μg/eye), day 7 post-injection
Protocol: Free latanoprost, EggPC-latanoprost, and POPC-latanoprost were each introduced by retrobulbar injection into the orbit of the rat eye to ascertain its effect on intraconal fat deposits. As a positive control, deoxycholic acid (DCA; KYBELLA®) was also injected. DCA has been approved by the United States Food and Drug Administration for reducing fat cells in the chin.
Six rats were injected in a single eye for each of treatment. The contralateral eye of each animal was not injected, thus serving as a negative control.
The number of adipocytes present in the intraconal fat deposit at day 7 post-injection was counted by computer analysis of histopathology images and compared to the number of adipocytes in the contralateral un-injected eye. The results are shown in FIGS. 4A-4F and in Table 2 below.

[2] = tested on: intraconal orbital fat adipocytes; assay: 21-day retrobulbar injection into orbital fat, histology and image analysis; assay type: in vivo, Lewis rats (Rattus norvegicus); set-up: Area of Retrobulbar Fat complex, Percentage Increase treated vs naïve control eyes / Mean Density of Adipocytes, Percent Increase treated vs naïve control eyes / Adipocyte Cell Counts, Percentage Decrease treated vs naïve control eyes: concentration or dose not given beside the values; conditions: rat; for Adipocyte Cell Counts, Treated Eyes Mean ± SEM / Area of Retrobulbar Fat complex, Treated Eyes Mean ± SEM / Mean Density of Adipocytes, Treated Eyes Mean ± SEM: 25 μg/eye (DCA 2000 μg/eye), day 21, n = 6; for Adipocyte Cell Counts, Percentage Decrease treated vs naïve control eyes / Area of Retrobulbar Fat complex, Percentage Increase treated vs naïve control eyes / Mean Density of Adipocytes, Percent Increase treated vs naïve control eyes: day 21
From the text: Free latanoprost, EggPC-latanoprost, POPC-latanoprost, and DCA were each introduced by retrobulbar injection into the orbit of the rat eye to ascertain its effect on intraconal fat deposits over a three-week period.
(§1) Twenty-four male Lewis rats (Rattus norvegicus) at 8-10 weeks of age were used in the study. Their weights at the start of the study ranged from 250-300 g.
(§2) Six rats were assigned to each of four groups at least one day prior to drug dosing using a selection designed to achieve similar group mean body weights. Animals in Groups A-D were weighed prior to injection and weekly thereafter.
(§3) Rats were anesthetized and a 30-gauge needle was used to inject the drugs into the retrobulbar space of the right orbit of each animal. The left orbit served as a contra-lateral control. All rats awoke from anesthesia without complication.
On Day 21, 3 weeks after injection, rats were euthanized by cardiac perfusion with 4% paraformaldehyde. After perfusion, each rat was decapitated and the head was placed in a 10% formalin solution for 2 days. Each orbit was carefully exenterated subperiosteally with a scalpel and placed back in 10% formalin solution for 1 day (6 orbits from 3 animals per group) and the remaining orbits were placed back in a 10% formalin solution for 2 weeks. Exenterated orbits were embedded in paraffin and cut into 5 μm sections. Sections centered around the intraconal fat and optic nerve were stained with hematoxylin-eosin for histologic examination by a trained ocular pathologist and a second observer in a blinded fashion.
Sections were examined histologically for optic nerve injury, atrophy of orbital fat, adipocyte density, and cytotoxicity evidenced by, e.g., adipocytolysis, blood vessel injury and repair, neutrophilic inflammation, lysis of locally present neutrophils, hemorrhage, lipid lake formation, and neovascularization.
The intraconal fat of the orbital sections were examined under light microscopy and images scanned for further analysis. The areas of intraconal orbital fat were cropped and the adipocytes counted using ImageJ software (Rasband W.S., US National Institutes of Health, Bethesda, Md.) to determine adipocyte density using a previously described method. See Park et al., 2011, Jpn. J. Ophthalmol. 55:22-27. The density of adipocytes in the intraconal orbital fat area was calculated and compared between groups via a 2-tailed Student t test.
Adipocyte size heterogeneity was analyzed in the cropped images of the intraconal fat light using a maximally stable extremal regions-based segmentation algorithm implemented in MATLAB (Mathworks, Natick, Mass.). A maximally stable extremal region algorithm entitled VL_FEAT was used to find extremal regions with parameters of delta=1, maximum variation=0.2, minimum diversity=0.5. Maximally stable extremal region-determined regions with sizes less than 10 pixels or eccentricity larger than 0.9 was discarded as false positives. The mean segmented adipocyte size for each image was calculated and the groups were compared using Student t test.

[3] = Intraocular pressure pre- and 3-week post retrobulbar injection; assay type: in vivo, Lewis rats (Rattus norvegicus); conditions: rat, pre-injection vs 3 weeks post-injection
From the text: as §1, §2, §3
Intraocular pressure (TOP) measurements were taken pre- and 3-week post-injection of each eye of all 24 rats.

C/EBPα = assay: Quantitative real-time PCR of C/EBPα mRNA in adipocytes; assay type: cell-based; conditions: adipocytes 9 or 15 days post differentiation, vs vehicle control
Protocol: (§4) Adipose-derived mesenchymal stem cells, i.e., pre-adipocytes, were cultured and differentiated into adipocytes following established protocols. Briefly, adipose derived mesenchymal stem cells were obtained from ATCC (PCS500011™, Manassas, Va.) and cultured in Mesenchymal Stem Cell Basal Medium (ATCC® PCS500030™) with Growth Kit (ATCC® PCS500040™) at 37° C. in 5% CO2. To induce differentiation, ADMSC cultures were grown to 70% to 80% confluence and the medium replaced by adipogenic differentiation medium (StemPro® Adipogenesis Differentiation Kit; Gibco Life Technologies™, USA). The medium was changed twice weekly.
(§5) Gene expression in the treated and untreated adipocytes was examined by quantitative real-time PCR analysis. Total RNA from adipocytes was isolated using the RNAzol® RT reagent (Molecular Research Center, Inc., Cincinnati, Ohio, USA) and reverse-transcribed using the QuantiTect reverse transcription kit (Qiagen Inc., Chatsworth, Calif., USA) according to the supplier's instructions. Messenger RNA expression of adipogenesis-promoting genes C/EBPα, PPARγ, and LPL were determined by quantitative analysis of real-time PCR (RT-PCR) using FastStart Universal SYBR Green Master Mix (Roche Applied Science) in a LightCycler® 480 Real-Time PCR System (Roche Applied Science, Germany). […]

PPARγ = assay: Quantitative real-time PCR of PPARγ mRNA in adipocytes; assay type: cell-based; conditions: adipocytes 9 or 15 days post differentiation, vs vehicle control
Protocol: as §4, §5

LPL = assay: Quantitative real-time PCR of LPL mRNA in adipocytes; assay type: cell-based; conditions: adipocytes 9 or 15 days post differentiation, vs vehicle control
Protocol: as §4, §5

inguinal fat pad = assay: In vivo fat reduction by direct injection into inguinal fat pads; conditions: mice, single injection 100 μL containing 100 μg latanoprost, 7 days post-injection
Protocol: The ability of liposome-encapsulated latanoprost to reduce fat deposits in vivo was tested by direct injection into inguinal fat pads of mice.
Each of three animals were injected into one inguinal fat pad with 100 μL of vehicle, 100 μL containing 100 μg latanoprost, 100 μL of EggPC-latanoprost containing 100 μg latanoprost, or 100 μL of POPC-latanoprost containing 100 μg latanoprost. Seven days later, the mice were sacrificed and the weights of both the injected inguinal fat pad and the contralateral un-injected fat pad were measured.

| Intraocular pressure (IOP) in injected eyes [3] | Structure (SMILES) | Adipocyte cell count reduction (percent reduction in total adipocyte number in intraconal fat deposit vs contralateral un-injected eye) [1] | Adipocyte Cell Counts, Treated Eyes Mean ± SEM ([2]; retrobulbar injection) | Area of Retrobulbar Fat complex, Treated Eyes Mean ± SEM ([2]; retrobulbar injection) | Mean Density of Adipocytes, Treated Eyes Mean ± SEM ([2]; retrobulbar injection) | Adipocyte Cell Counts, Percentage Decrease treated vs naïve control eyes ([2]; retrobulbar injection) | Area of Retrobulbar Fat complex, Percentage Increase treated vs naïve control eyes ([2]; retrobulbar injection) | Mean Density of Adipocytes, Percent Increase treated vs naïve control eyes ([2]; retrobulbar injection) | mRNA expression of adipogenesis-promoting gene C/EBPα (C/EBPα) | mRNA expression of adipogenesis-promoting gene PPARγ (PPARγ) | mRNA expression of adipogenesis-promoting gene LPL (LPL) | weight reduction of injected inguinal fat pad as compared to un-injected contralateral fat pad (inguinal fat pad) | heterogeneity among adipocytes in the intraconal space as compared to naïve contra-lateral control orbits ([2]; orbital injection, day 21, computer-aided morphological analysis) | change in the area of the retrobulbar fat complex after injection (significance) ([2]; retrobulbar injection, day 21, quantitative image analysis) |
| --- | --- | --- | --- | --- | --- | --- | --- | --- | --- | --- | --- | --- | --- | --- |
| significant increase | C[C@H](CCC(=O)O)[C@H]1CC[C@H]2[C@@H]3CC[C@@H]4C[C@H](O)CC[C@]4(C)[C@H]3C[C@H](O)[C@]12C [DCA, deoxycholic acid] | 39.04% | 179 ± 47 | 0.167 ± 0.093 mm^2 | 7606.21 ± 754.39 cells/mm^3 | 37% | 208% | 35% |  |  |  |  |  |  |
| remained stable | CC(C)OC(=O)CCC/C=C\C[C@@H]1[C@@H](CC[C@@H](O)CCc2ccccc2)[C@H](O)C[C@@H]1O [latanoprost] | 56.52% | 108 ± 52 | 0.131 ± 0.089 mm^2 | 8574.68 ± 1456.73 cells/mm^3 | 61% | 283% | 58% | suppressed expression | suppressed expression | suppressed expression | did not result in any weight reduction | more heterogeneity | significant increases |
